In data set [1] the target is T1, hSGLT2 (Homo sapiens, UniProt P31639).
T1 sequence (P31639 1-672): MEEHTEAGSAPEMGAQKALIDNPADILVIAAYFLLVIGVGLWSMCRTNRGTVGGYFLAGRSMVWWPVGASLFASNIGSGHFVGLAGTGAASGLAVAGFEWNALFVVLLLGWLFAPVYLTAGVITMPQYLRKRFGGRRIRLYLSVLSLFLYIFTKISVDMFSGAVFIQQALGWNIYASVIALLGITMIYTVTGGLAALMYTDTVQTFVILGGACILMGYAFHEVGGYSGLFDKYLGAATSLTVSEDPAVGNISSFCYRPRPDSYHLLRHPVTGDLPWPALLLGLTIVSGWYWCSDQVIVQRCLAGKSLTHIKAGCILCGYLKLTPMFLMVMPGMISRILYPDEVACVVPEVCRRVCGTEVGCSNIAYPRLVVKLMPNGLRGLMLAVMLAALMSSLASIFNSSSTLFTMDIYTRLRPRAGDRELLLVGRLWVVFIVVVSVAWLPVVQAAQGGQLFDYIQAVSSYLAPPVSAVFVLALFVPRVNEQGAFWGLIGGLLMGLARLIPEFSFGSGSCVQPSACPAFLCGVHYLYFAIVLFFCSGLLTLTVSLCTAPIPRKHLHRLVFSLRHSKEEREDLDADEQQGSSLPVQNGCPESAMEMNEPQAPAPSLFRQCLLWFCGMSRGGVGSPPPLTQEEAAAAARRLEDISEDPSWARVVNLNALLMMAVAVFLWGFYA
Briefly: cell-based. Set-up: host or cells: CHO-K1. As to conditions: CHO, read-out: % of control remaining.

The target in data set [2] is T2, SGLT1 (Homo sapiens, UniProt P13866).
T2 sequence (P13866 1-664): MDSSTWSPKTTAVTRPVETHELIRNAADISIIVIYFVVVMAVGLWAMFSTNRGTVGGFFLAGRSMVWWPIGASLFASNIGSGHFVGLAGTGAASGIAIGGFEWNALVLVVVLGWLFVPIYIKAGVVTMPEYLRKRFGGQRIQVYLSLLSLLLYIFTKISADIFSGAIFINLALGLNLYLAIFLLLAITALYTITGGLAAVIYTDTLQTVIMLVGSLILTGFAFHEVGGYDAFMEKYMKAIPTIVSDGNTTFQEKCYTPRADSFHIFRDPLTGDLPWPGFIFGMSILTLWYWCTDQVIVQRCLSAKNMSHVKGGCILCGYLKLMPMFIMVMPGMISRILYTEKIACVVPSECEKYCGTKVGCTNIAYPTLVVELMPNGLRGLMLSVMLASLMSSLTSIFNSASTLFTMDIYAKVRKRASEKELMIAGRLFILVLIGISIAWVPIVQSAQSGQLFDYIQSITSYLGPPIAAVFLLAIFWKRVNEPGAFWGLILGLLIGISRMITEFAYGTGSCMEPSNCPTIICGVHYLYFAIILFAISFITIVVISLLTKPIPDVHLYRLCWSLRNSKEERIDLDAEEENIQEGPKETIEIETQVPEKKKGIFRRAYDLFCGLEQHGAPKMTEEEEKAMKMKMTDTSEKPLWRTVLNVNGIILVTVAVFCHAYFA
Briefly: cell-based. Set-up: host or cells: CHO-K1. As to conditions: CHO, read-out: % of control remaining.

Data set [3] concerns CHO‐hSGLT1/2 cells. Briefly: Cytotoxicity assay (ToxiLight, adenylate kinase leakage into CHO‐SGLT1/2 inhibition assay media).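 Note: bioluminescent read-out of adenylate kinase released from lysed cells into the medium, given relative to DMSO vehicle control defined as 0%, higher meaning more cytolysis; percent of DMSO vehicle control bioluminescence with vehicle set at 0%.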 More on the design: CYTOTOXICITY / CY[…], mean / CYTOTOXICITY (% of vehicle control) Mean / CYTOTOXICITY, mean / CY[…] (% of vehicle control) Mean: dose or concentration left out as unconfirmed. The following applies: mean.
Procedure: The cytotoxicity of representative SGLT1/2 inhibitors and compounds from the different chemical clusters was tested. Cytotoxicity was determined using the ToxiLight bioassay kit according to the supplier's instructions. This nondestructive assay measures leakage of the enzyme adenylate kinase (AK) from damaged cells into the CHO‐SGLT1/2 inhibition assay media, ie the degree of cytolysis. […] Next, bioluminescence was measured using a FlexStation 3 Multi‐Mode Microplate Reader (Molecular Devices) by 1 second integrated reading. Cytotoxicity was expressed as the percentage of bioluminescence of the DMSO vehicle control which was set at 0%. If applicable, statistical outliers were determined using Grubbs’ test (alpha = 0.05) and excluded for calculation of the mean ± SD.
In data set [4] the target is T2, SGLT1. The experiment in a line: SGLT1 inhibition assay for validation of screening hits and similar compounds (1‐NBD‐glucose uptake, CHO‐hSGLT1 cells). Type of data set: cell-based.
The target in data set [5] is T1, hSGLT2. Briefly: SGLT2 inhibition assay for validation of screening hits and similar compounds (1‐NBD‐glucose uptake, CHO‐hSGLT2 cells). It counts as cell-based. As to conditions: 1‐NBD‐glucose uptake, CHO‐hSGLT2; mean of n biological replicates, or individual measurements where n=2; read-out: SGLT2‐IC50 Mean.
For data set [6], the target named is T2, SGLT1. The experiment in a line: Cellular uptake and transcellular transport of 14C‐α‐methylglucose by Caco‐2 cell monolayers. More on the design: Caco‐2 cells expressing endogenous SGLT1; host or cells: Caco-2. It counts as cell-based. As to conditions: 90 minutes. As to the method: Caco‐2 cells (passage numbers 7 and 13) were seeded (29,700 cells) onto polycarbonate Transwell® inserts (6.5 mm diameter and 3.0 μm pores) and cultured for 21‐24 days to obtain differentiated polarized monolayers. Apical and basal medium was refreshed twice a week and the final medium refresh was done the day before the uptake and transport experiment. TransEpithelial Electrical Resistance (TEER) was measured with an EVOM^2 epithelial voltmeter (World Precision Instruments, Sarasota, USA) and inserts were used if TEER > 3000 Ω/cm^2. First, cells were washed twice apically and basally with D‐glucose free DMEM. Then, 100 μL (+)‐pteryxin dilutions (50 μmol/L and 500 μmol/L), P p.‐extract dilutions (1/200 and 1/2000), or 0.5% (v/v) DMSO vehicle control were applied apical in D‐glucose free DMEM with 0.3% (w/v) BSA and 40 nCi/mL ^14C‐α‐methylglucose. The basal acceptor wells (24‐well) contained 350 μL D‐glucose free DMEM with 0.3% (w/v) BSA. Then, cells were incubated in a humidified incubator at 37°C with 5% CO2 for 90 minutes. Inserts were transferred to a clean 24‐well plate and washed once with DMEM (with D‐glucose) and once with HBSS, with 1 mL at the basal and 100 μL at the apical side. Cells were lysed with 100 μL of 0.2 mol/L NaOH for 30 minutes at 37°C and lysates were analyzed by liquid scintillation counting on a Tri‐Carb 2910 TR (Perkin Elmer, Groningen, The Netherlands) to determine cellular ^14C‐α‐methylglucose uptake. Basal media were analyzed accordingly to determine transcellular ^14C‐α‐methylglucose transport. Mean ± SD ^14C‐α‐methylglucose uptake and transport were calculated from two biological replicates, each consisting of four technical replicates.

In general, IC50 refers to the concentration that inhibits the measured activity by half. By inhibition is commonly meant the percentage by which the read-out fell short of the control.

In the case of `CC(=O)OC[C@H]1O[C@@H](O[C@@H]2[C@@H](O)[C@H](O[C@@H]3[C@H](O)C(C)(C)C[C@H]4C5=CC[C@@H]6[C@@]7(C)CC[C@H](O[C@@H]8O[C@H](C(=O)O)[C@@H](O)[C@H](O)[C@H]8O[C@@H]8O[C@H](CO)[C@H](O)[C@H](O)[C@H]8O[C@@H]8O[C@H](CO)[C@@H](O)[C@H](O)[C@H]8O)[C@](C)(CO)[C@@H]7CC[C@@]6(C)[C@]5(C)CC[C@@]34C)OC[C@@H]2O)[C@H](OC(C)=O)[C@@H](OC(C)=O)[C@@H]1OC(C)=O` [Soyasaponin Ab], in data set [1], the remaining activity at 5 µM came out at 106% and the remaining activity at 50 µM worked out at 96.8%. In data set [2], the remaining activity at 5 µM was found to be 104% and the remaining activity at 50 µM worked out at 104%. Besides, in data set [3], the CYTOTOXICITY came out at 5.
Regarding `CC=C(C)C(=O)OC1c2c(ccc3ccc(=O)oc23)OC(C)(C)C1OC(C)=O` (stereo not drawn) [(+)‐pteryxin], the IC50 in data set [4] (1‐NBD‐glucose uptake, CHO‐hSGLT1, mean of n biological replicates, or individual measurements where n=2, read-out: SGLT1‐IC50 Mean) came to 12 µM; in data set [5], 9 µM. In addition, in data set [4] (mean inhibition with 50 μmol/L inhibitor, read-out: SGLT1 inhibition), the inhibition at 50 µM was 89%. Also, the “Inhibition of 14C‐α‐methylglucose cellular uptake” value is recorded as 18% in data set [6] (Caco‐2, 50 μmol/L) and 91% in data set [6] (Caco‐2, 500 μmol/L). Also, the “Inhibition of transcellular transport of 14C‐α‐methylglucose” value in data set [6] (Caco‐2, 50 μmol/L) worked out at 37%; in data set [6] (Caco‐2, 500 μmol/L), 89%.
With `C[C@@H]1O[C@@H](O[C@H]2[C@H](O[C@H]3CC[C@@]4(C)[C@@H](CC[C@]5(C)[C@@H]4CC=C4[C@@H]6CC(C)(C)CC[C@]6(C(=O)O[C@@H]6O[C@H](CO[C@@H]7O[C@H](CO)[C@@H](O[C@@H]8O[C@@H](C)[C@H](O)[C@@H](O)[C@H]8O)[C@H](O)[C@H]7O)[C@@H](O)[C@H](O)[C@H]6O)CC[C@]45C)[C@]3(C)CO)OC[C@H](O)[C@@H]2O)[C@H](O)[C@H](O)[C@H]1O` [Hederacoside C], in data set [1], the remaining activity at 5 µM came to 113% and the remaining activity at 50 µM came out at 115%. For the same molecule, in data set [2], the remaining activity at 5 µM worked out at 97.9% and the remaining activity at 50 µM is 102%. Besides, in data set [3], the CYTOTOXICITY was -28.

Source of the values: article PMC6664820, “Novel natural and synthetic inhibitors of solute carriers SGLT1 and SGLT2” (Pharmacology Research & Perspectives, 2019).
